Reference: patent publication US20030069264A1, “METHOD OF DETERMINING AND REDUCING THE RISK OF BPH-RELATED UROLOGIC EVENTS” (priority 1998, published 2003)
“Also recorded” adds a separate entry of the source.

System: men with clinical BPH
Assay: four-year, double-blind placebo-controlled study of finasteride in men with clinical BPH (acute urinary retention and BPH-related surgery outcomes)
Assay type: in vivo, human
Conditions: for risk of AUR or BPH-related surgery / finasteride-related reduction of risk (AUR or surgery): 4 years; for finasteride-related reduction of risk (AUR or surgery): versus placebo
Procedure: A total of 3040 men with clinical BPH diagnosed on the basis of moderate-to-severe symptoms, a decreased peak urinary flow rate (less than 15 mL/sec with a voided volume of 150 mL or more) and an enlarged prostate gland by digital rectal examination (DRE) were enrolled in a four-year study comparing finasteride with placebo. Men receiving alpha blocking agents or antiandrogens, and men with a history of chronic prostatitis, recurrent urinary tract infections, prostate or bladder cancer or surgery, or a serum PSA over 10 ng/mL were excluded. Men with serum PSA concentrations between 4.0 and 9.9 ng/mL had to have a negative prostate biopsy prior to enrollment.
After a one-month single-blind placebo lead-in, men were randomly assigned to receive placebo or 5 mg of finasteride (17β-(N-tert-butylcarbamoyl)-3-oxo-4-aza-5α-androst-1-en-3-one) daily in a four year, double-blind placebo-controlled study. BPH-related outcomes including symptoms, bothersomeness, adverse events and urinary flow rates, were assessed every 4 months. Serum PSA was measured every 4 months in the first year and then every 8 months at a central laboratory. Physical examination and routine hematological and serum chemistry tests were performed yearly. Magnetic resonance imaging (MRI) was performed at baseline and subsequently yearly in a subset of 10% of patients. All MRI images were read by a central radiologist blinded to treatment allocation and time of imaging.
Acute urinary retention (AUR) and surgery for BPH were predefined secondary end-points. The endpoint committee, blinded to treatment group, reviewed all study-related documents related to episodes of acute urinary retention, and all prostate surgeries for BPH, excluding surgery for prostate cancer. The endpoint committee classified episodes of AUR as spontaneous versus precipitated (when contributing factors such as urinary tract infection, surgery anesthesia, ingestion of alpha sympathomimetic drugs or anticholinergics were identified).
Complete data on outcomes, including four-year follow-up information for men who had discontinued treatment, were available for 92% of the men randomized. In the other 8%, complete information was available until discontinuation of the medication or up to the 6-month follow-up assessment after discontinuation.
The effect of baseline serum PSA on the risk of BPH-related outcomes (developing AUR and need for BPH-related surgery), were assessed by dividing patients into tertiles of baseline serum PSA, and calculating the risk of developing an outcome by time-to-first event analysis as well as Fisher's exact test for cumulative incidence. The finasteride-related reduction in risk over 4 years was calculated using log rank analyses. All statistical tests were two-sided and a p-value of <0.05 accepted as significant.
The measurement characteristics of baseline in prediction of BPH-related outcomes were evaluated using receiver operating characteristic (ROC) curves. The area under the ROC curve (AUC) for a given population is given by the probability that a randomly chosen individual in the affected population has a higher value of the index (in this case PSA) than a randomly chosen individual in the non-affected population. The AUC's were computed using the method of Hanley and McNeil. Differences between AUC's in the finasteride and placebo group were tested using normal statistics with standard deviations computed by the same method.

[1] = 5 mg daily, four years, all patients
[2] = lowest tertile of serum PSA (0.0-1.3 ng/mL)
[3] = second tertile (serum PSA 1.4-3.2 ng/mL)

CC(C)(C)NC(=O)[C@H]1CC[C@H]2[C@@H]3CC[C@H]4NC(=O)C=C[C@]4(C)[C@H]3CC[C@]12C [finasteride, 17β-(N-tert-butylcarbamoyl)-3-oxo-4-aza-5α-androst-1-en-3-one]
incidence of BPH-related surgery [1]: 5%
incidence of precipitated AUR [1]: 2%
incidence of spontaneous AUR [1]: 1%
overall incidence of acute urinary retention (5 mg finasteride daily, four years, all patients): 4%
decrease of the risk of developing a BPH-related outcome (all subgroups examined): approximately half
increase of cumulative incidence of spontaneous AUR with increasing baseline serum PSA (finasteride-treated patients, four years, FIG. 1): nearly absent; also recorded: the risk remains unchanged over the entire serum PSA spectrum
increase of cumulative incidence of all AUR (spontaneous and precipitated combined) with increasing baseline serum PSA (finasteride-treated patients, four years, FIG. 2): nearly absent
increase of cumulative incidence of BPH-related surgery across baseline PSA values (finasteride-treated patients, four years, FIG. 3): increases only in finasteride-treated patients in men with a baseline PSA above 5.0 ng/mL
risk of AUR or BPH-related surgery (highest tertile of baseline serum PSA): 8.3%
risk of AUR or BPH-related surgery (lowest tertile of baseline serum PSA): 4.4%
4-year relative risk for finasteride versus placebo-treated patients [2]: 0.57
benefit of finasteride over placebo in the first two years (risk of AUR or surgery) [2]: minimal; also recorded: no apparent benefit
finasteride-related reduction of risk (AUR or surgery) [2]: 43%
4-year relative risk for finasteride versus placebo-treated patients [3]: 0.54
finasteride-related reduction of risk (AUR or surgery) [3]: 46%
4-year relative risk for finasteride versus placebo treated patients (third tertile of serum PSA (3.3-12 ng/mL)): 0.40
finasteride-related reduction of risk (AUR or surgery) (third/highest tertile of serum PSA (3.3-12 ng/mL)): 60%
